Data from patent publication US5260189A, “Synthetic HIV-like peptides their compositions and uses” (Immunodiagnostics, Inc., priority 1992, dated 1993).
Entries after “also recorded” stand apart in the source; their conditions may differ.

How the values were obtained:
antibodies to HIV-1 [1] = assay: EIA of p24 synthetic peptide-BSA conjugates with serum pools and individual sera; format: binding, human
Procedure: (§1) The free peptides or peptide-protein conjugates of FIGS. 1-13 were initially screened for immunoreactivity by coating each well of polystyrene microtiter EIA plates (Costar, Cambridge, Mass., U.S.A.) with 0.2 ml amounts of concentrations of 5-50 micrograms/ml peptide in Tris buffer, 10 mM, pH 8.0, at 4° C. overnight. Peptides or peptide-protein conjugates showing immunoreactivity by EIA were then further diluted for coating to determine the minimal concentrations required that allowed maximal immunoreactivity with antibodies to HIV, and minimal nonspecific reactivity with normal sera. The EIA tests were performed as follows: The coating solution was removed from each well and the wells were blocked at 37° C. for 30 minutes with a solution of 50 mM phosphate, 100 mM NaCl, pH 7.4, 1% BSA, 0.5% gelatin. The wells were then aspirated dry with a microtiter plate washer and washed 3 times with a solution of 50 mM phosphate, 100 mM NaCl, 0.05% Tween 20, pH 7.4 (PBST). A 1:101 dilution (in PBST with 1% BSA, 1% NRS) of the primate serum to be tested was then added as 0.2 ml to each washed well and the plates were incubated at 37° C. for 30 minutes. The plates were then washed×3 with PBST, and 0.2 ml amounts of a 1:2000 dilution of goat anti-human (GAH) peroxidase enzyme conjugate (Organon Teknika, Cappel, Melvern, Pa., U.S.A.) that recognized human IgG, IgA, and IgM were added to each well, and the plates were incubated for 30 minutes at 37° C. The plates were then washed×3 with PBST and incubated with 0.2 ml/well substrate consisting of 0.1M citric acid pH 5.2, 0.1 mg/ml o-phenylene diamine, 0.01% H2 O2, at room temperature in the dark for 10 minutes. Reactions were stopped with 50 microliters of 4N H2 SO4, and the color development was quantitated in a Multiscan plate reader at A492. In each series of experiments positive and negative controls were included, and all tests were done in duplicate or quadruplicate. Most peptides and peptide conjugates were initially screened against a 1:101 dilution of pools of HIV positive or HIV negative sera, and the same serum pool was used to allow quantitative comparison of immunoreactivity of different free peptides or peptide-protein conjugates.
FIG. 8 illustrates the immunoreactivity and AA sequences of synthetic peptides of the p24 protein of HIV-1, when conjugated to BSA via their C-termini using SMCC, and reacted with a pool of approximately 50 sera from persons containing antibody to HIV-1, or with a pool of approximately 30 sera from individuals devoid of antibody to HIV-1. […] No negative sera (0/85, 0%) reacted, and 17 positive sera (17/98, 17%) were immunoreactive. It has been reported that individuals lose antibodies to p24 during the course of progression from asymptomatic infection to clinical disease and AIDS (Franchini et al., Blood 69:(2):437-441, 1987, and Weber et al., Lancet i:119-122, 1987), which may explain the lower frequency of antibodies to this peptide in the sera tested.

antibodies to HIV-1 [2] = assay: EIA of peptide-protein conjugates coated on polystyrene microtiter plates, human sera; format: binding; conditions: for immunoreactivity with HIV-1 antibodies (FIG. 1): C-terminal BSA-SMCC conjugates, 10 micrograms peptide/ml coating, 1:101 dilution of pooled HIV+ / HIV- sera
Procedure: as §1
(§2) The peptides in FIGS. 1 and 5 were synthesized as described in Example 1 and conjugated to KLH or BSA as described in Example 2. These peptide-protein conjugates were coated to polystyrene microtiter plates all at a concentration 10 micrograms peptide/ml and evaluated for immunoreactivity as described in Example 3, using a 1:101 dilution of a pool of sera (HIV+/SIV+, respectively) containing antibodies to HIV-1 (FIG. 1) or to HIV-2 (FIG. 5), as well as pooled serum (HIV-/SIV-, respectively) containing no antibodies to HIV-1 or HIV-2. […] Since sera from patients infected with HIV-2 are relatively unavailable in the United States, the immunoreactivity of HIV-2 synthetic peptides was assessed using serum from macaques infected with SIV, obtained from the University of Washington Primate Center, Seattle, Wash., U.S.A. The AA sequence of SIV is nearly identical to HIV-2 in the region of the peptides synthesized (see Myers et al., Human Retroviruses and AIDS, 1988. A compilation of nucleic acid and amino acid sequences. Los Alamos National Laboratory, Los Alamos, N. Mex., 87545, USA).

antibodies to SIV/HIV-2 = assay: EIA of peptide-protein conjugates coated on polystyrene microtiter plates, macaque sera; format: binding, rhesus macaque (Macaca mulatta); conditions: for immunoreactivity with SIV/HIV-2 antibodies (FIG. 5): C-terminal BSA-SMCC conjugates, 10 micrograms peptide/ml coating, 1:101 dilution of pooled SIV+ / SIV- macaque sera; for discrimination of positive from negative macaque sera (FIG. 7): peptide-BSA conjugates
Excerpt: For all of the immunoassays employing human serum, the serum samples were obtained from the King County Health Department, Seattle, Wash., U.S.A., and each serum had been characterized as positive or negative with respect to antibodies to HIV-1, as determined by testing with the commercially licensed Genetic Systems and or DuPont EIA tests. Serum from rhesus macaque monkeys (Macaca mulatta) was obtained from the University of Washington, Seattle, Wash., U.S.A., and had been characterized by a SIV whole virus lysate EIA as either containing or not containing antibodies to SIV which is nearly identical in sequence to HIV-2 in the region of the peptide epitopes studied.
as §1, §2

Antibodies to HIV-2 = assay: Detection of seroconversion in macaques experimentally infected with SIV, EIA; format: binding, macaque
Procedure: as §1
The immunoreactivity of the HIV-2 peptide BSA conjugates 2S24, (2S24 plus 5S86), and 5S92 was evaluated for detection of seroconversion in macaques using serial sera collected over a 16 week period from 7 macaques experimentally infected with SIV at week 0.

[3] = BSA-SMCC conjugate, 85 individual sera without antibodies to HIV-1
[4] = BSA-SMCC conjugate, 98 individual sera containing antibodies to HIV-1

ALGPAATLEEMMTACGC [5S94, HIV-1 p24 peptide with GC tail]
negative sera reacting (antibodies to HIV-1 [1]; [3]): 0/85
negative sera reacting, percent (antibodies to HIV-1 [1]; [3]): 0%
positive sera immunoreactive (antibodies to HIV-1 [1]; [4]): 17/98
positive sera immunoreactive, percent (antibodies to HIV-1 [1]; [4]): 17%
immunoreactivity with serum pools (FIG. 8) (antibodies to HIV-1 [1]; BSA-SMCC conjugates, pool of approximately 50 HIV+ sera and approximately 30 HIV- sera): immunoreactive peptide; also recorded: significant immunoreactivity

AVERYLKDQQLLGC [2S01]
immunoreactivity with HIV-1 antibodies (FIG. 1) (antibodies to HIV-1 [2]): significantly less immunoreactive

CSGKLICTTAVPWNAGC [3S51]
immunoreactivity with HIV-1 antibodies (FIG. 1) (antibodies to HIV-1 [2]): Significant immunoreactivity; also recorded: higher reactivity

DQARLNSWGCAFRQVC [2S24]
immunoreactivity with SIV/HIV-2 antibodies (FIG. 5) (antibodies to SIV/HIV-2): Significant immunoreactivity; also recorded: best immunoreactivity; also recorded: maximally immunoreactive
discrimination of positive from negative macaque sera (FIG. 7) (antibodies to SIV/HIV-2): most favorable performances
Reactivity by Peptide-BSA Conjugate (reactive macaques/7) (Antibodies to HIV-2; Week 0 (SIV infection at week 0)): 0/7
Reactivity by Peptide-BSA Conjugate (reactive macaques/7) (Antibodies to HIV-2; Week 1): 0/7
Reactivity by Peptide-BSA Conjugate (reactive macaques/7) (Antibodies to HIV-2; Week 2): 1/7
Reactivity by Peptide-BSA Conjugate (reactive macaques/7) (Antibodies to HIV-2; Week 3): 2/7
Reactivity by Peptide-BSA Conjugate (reactive macaques/7) (Antibodies to HIV-2; Week 4): 4/7
Reactivity by Peptide-BSA Conjugate (reactive macaques/7) (Antibodies to HIV-2; Week 6): 6/7
Reactivity by Peptide-BSA Conjugate (reactive macaques/7) (Antibodies to HIV-2; Week 8): 7/7
Reactivity by Peptide-BSA Conjugate (reactive macaques/7) (Antibodies to HIV-2; Week 12): 7/7
Reactivity by Peptide-BSA Conjugate (reactive macaques/7) (Antibodies to HIV-2; Week 16): 7/7

ERYLKDQQLLGIWGC [2S02]
immunoreactivity with HIV-1 antibodies (FIG. 1) (antibodies to HIV-1 [2]): significantly less immunoreactive

GCSGKLICTTAVPWNGC [2S11]
immunoreactivity with HIV-1 antibodies (FIG. 1) (antibodies to HIV-1 [2]): Significant immunoreactivity; also recorded: higher reactivity

GKLICTTAVPWNASWGC [3S55]
immunoreactivity with HIV-1 antibodies (FIG. 1) (antibodies to HIV-1 [2]): Significant immunoreactivity; also recorded: higher reactivity

IKQLQARILAVERYLKDQQ [4S24, reference compound]
immunoreactivity with HIV-1 antibodies (FIG. 1) (antibodies to HIV-1 [2]): lower immunoreactivity

IWGCSGKLICTTAVPGC [2S09]
immunoreactivity with individual positive sera (FIGS. 10B, 10C) (antibodies to HIV-1 [2]; BSA-SMCC conjugate, 98 HIV-1 antibody positive human sera): some positive samples had very low immunoreactivity
immunoreactivity with HIV-1 antibodies (FIG. 1) (antibodies to HIV-1 [2]): Significant immunoreactivity; also recorded: slightly superior immunoreactivity; also recorded: maximally immunoreactive; also recorded: higher reactivity

IWGCSGKMICTTAVPGC [5S76, unnatural variant of HIV-1 gp41 peptide 2S09]
number of positive samples giving A492 less than 1.0 (antibodies to HIV-1 [2]; BSA-SMCC conjugate, 98 positive human sera (FIGS. 11A, 11B)): Five

KDQQLLGIWGCSGKLGC [2S04]
immunoreactivity with HIV-1 antibodies (FIG. 1) (antibodies to HIV-1 [2]): Significant immunoreactivity

KLICTTAVPWNASWSGC [2S15]
immunoreactivity with HIV-1 antibodies (FIG. 1) (antibodies to HIV-1 [2]): Significant immunoreactivity; also recorded: higher reactivity

LGIWGCSGKLICTTAGC [2S07]
immunoreactivity with HIV-1 antibodies (FIG. 1) (antibodies to HIV-1 [2]): Significant immunoreactivity

LLGIWGCSGKLICTTGC [2S06]
immunoreactivity with HIV-1 antibodies (FIG. 1) (antibodies to HIV-1 [2]): Significant immunoreactivity

QQLLGIWGCSGKLICGC [3S36]
immunoreactivity with HIV-1 antibodies (FIG. 1) (antibodies to HIV-1 [2]): Significant immunoreactivity

RILAVERYLKDQQLLGIWGCSGKLIC [4S25, reference compound]
immunoreactivity with HIV-1 antibodies (FIG. 1) (antibodies to HIV-1 [2]): Significant immunoreactivity; also recorded: lower immunoreactivity; also recorded: lower or comparable immunoreactivity

SGKLICTTAVPWNASGC [2S13]
immunoreactivity with HIV-1 antibodies (FIG. 1) (antibodies to HIV-1 [2]): Significant immunoreactivity; also recorded: higher reactivity

SWGCAFRQVCHTSVPGC [5S86, HIV-2/SIV natural peptide]
discrimination of positive from negative macaque sera (FIG. 7) (antibodies to SIV/HIV-2): most favorable performances

SWGCAFRQVCHTTVPGC [2S27]
immunoreactivity with SIV/HIV-2 antibodies (FIG. 5) (antibodies to SIV/HIV-2): Significant immunoreactivity; also recorded: best immunoreactivity; also recorded: maximally immunoreactive
discrimination of positive from negative macaque sera (FIG. 7) (antibodies to SIV/HIV-2): most favorable performances

YLKDQQLLGIWGCSGC [2S03]
immunoreactivity with HIV-1 antibodies (FIG. 1) (antibodies to HIV-1 [2]): significantly less immunoreactive
